In this experiment the target is T1, Porcine pancreatic α-amylase (Sus scrofa, UniProt P00690).
T1 construct: purchased Sigma-Aldrich (Milan, Italy)
T1 sequence (P00690 16-511): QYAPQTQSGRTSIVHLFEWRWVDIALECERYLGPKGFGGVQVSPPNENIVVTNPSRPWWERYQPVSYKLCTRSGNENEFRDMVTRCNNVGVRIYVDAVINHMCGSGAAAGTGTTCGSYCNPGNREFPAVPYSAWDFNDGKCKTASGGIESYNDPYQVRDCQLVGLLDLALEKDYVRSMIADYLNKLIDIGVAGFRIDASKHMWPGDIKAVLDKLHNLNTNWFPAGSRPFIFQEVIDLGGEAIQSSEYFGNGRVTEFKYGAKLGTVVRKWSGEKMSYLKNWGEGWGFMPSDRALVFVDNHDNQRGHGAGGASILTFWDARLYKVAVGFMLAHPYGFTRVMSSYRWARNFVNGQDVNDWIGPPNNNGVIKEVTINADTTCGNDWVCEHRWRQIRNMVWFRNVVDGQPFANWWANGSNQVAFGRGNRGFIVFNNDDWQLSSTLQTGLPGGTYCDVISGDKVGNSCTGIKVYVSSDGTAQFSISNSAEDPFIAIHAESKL
The experiment is described as follows: Pancreatic α-amylase inhibition (modified K-AMYLSD kit, p-nitrophenyl-α-D-maltoheptaoside substrate). The class given is biochemical. The note with it: for inhibition at 10000 µM: 10 mM final concentration; for Hill cooperativity coefficient (n^H) / Ki: three-parameter Hill equation fit, inhibitor zero to 0.1 mM; for Ki: read-out: Ki^app. The procedure:
The monomeric and dimeric stilbenoids described above were tested for their ability to inhibit the enzyme α-amylase, using acarbose as a reference compound. The method used to evaluate the enzyme activity relies on a two-step procedure. In a first step, α-amylase acts on a modified p-nitrophenyl-α-D-maltoheptaoside, releasing products that may be hydrolyzed by an excess α-glucosidase present in the assay mixture, therefore allowing spectrophotometric quantitation of the released p-nitrophenolate anion.
Porcine pancreatic α-amylase [EC 3.2.1.1] was from Sigma-Aldrich (Milan, Italy). Activity was monitored by using the K-AMYLSD kit from Megazyme (Bray, Ireland), with modifications. An aliquot of α-amylase (0.03 mL, 0.1 μM in 50 mM phosphate buffer, pH 6.8) was added to 0.120 mL of 50 mM phosphate buffer, pH 6.8, in a microtiter plate well. The investigated compounds where then added as methanolic solutions (0.03 mL) of appropriate concentration. The reaction was started by adding 0.02 mL of the substrate solution provided with the kit, resulting in a final concentration of 0.4 μM substrate. The kit-provided substrate solution also contained an excess of thermostable bacterial α-glucosidase, that is required for the release of the p-nitrophenolate anion from the p-nitrophenyl glucosides produced by the activity of α-amylase on the chemically modified maltoheptaoside. At appropriate times, the reaction was stopped by adding 0.1 mL of 0.2 M Na2CO3, and the absorbance was read in a microplate reader set at 405 nm. Blanks were prepared in the absence of the pancreatic α-amylase. […] Acarbose (from a stock solution in methanol) was used as the reference inhibitor. A minimum of three independent replications was carried out for each assay.

The values that follow come from PMC6766848, “Inhibition of Pancreatic α-amylase by Resveratrol Derivatives: Biological Activity and Molecular Modelling Evidence for Cooperativity between Viniferin Enantiomers” (Molecules, 2019).

`COc1cc(/C=C/c2ccc3c(c2)[C@@H](c2cc(OC)cc(OC)c2)[C@H](c2ccc(O)cc2)O3)cc(OC)c1` (relative stereo) [compound 8, pterostilbene-trans-dihydrodimer] displayed an inhibition at 10000 µM (versus controls with 15% MeOH) of 28%.
For `Oc1ccc([C@@H]2Oc3ccc(/C=C/c4cc(O)cc(O)c4)cc3[C@H]2c2cc(O)cc(O)c2)cc1` [(R, R)-trans-δ-viniferin], the “Hill cooperativity coefficient (n^H)” value was determined as 1.5 and the Ki is 43 µM.
With `Oc1ccc([C@H]2Oc3ccc(/C=C/c4cc(O)cc(O)c4)cc3[C@@H]2c2cc(O)cc(O)c2)cc1` [(S, S)-trans-δ-viniferin], the “Hill cooperativity coefficient (n^H)” value is reported as “four” and the Ki worked out at 58 µM.
`C[C@H]1O[C@H](O[C@H]2[C@H](O)[C@@H](O)[C@@H](O[C@H]3[C@H](O)[C@@H](O)C(O)O[C@@H]3CO)O[C@@H]2CO)[C@H](O)[C@@H](O)[C@@H]1N[C@H]1C=C(CO)[C@@H](O)[C@H](O)[C@H]1O` (stereo partly shown) [acarbose, reference compound] gave an inhibition at 1000 µM (1 mM final concentration, versus controls with 15% MeOH) of 86%.
In the case of `COc1cc(/C=C/c2ccc(O)cc2)cc(OC)c1` [compound 2, pterostilbene], under “versus controls with 15% MeOH”, the inhibition at 10000 µM came out at 21%.
The same measure, in the same setting: the value for `Oc1ccc(C2Oc3ccc(C=Cc4cc(O)cc(O)c4)cc3C2c2cc(O)cc(O)c2)cc1` (stereo not drawn) [compound 5, Trans-δ-viniferin] was ~90%.
Still for that read-out and setting: the figure for `Oc1ccc(C=Cc2cc(O)cc3c2C(c2cc(O)cc(O)c2)C(c2ccc(O)cc2)O3)cc1` (stereo not drawn) [compound 6, Trans-ε-viniferin] is ~90%; for `Oc1ccc([C@@H]2c3c(O)cc(O)cc3[C@H]3[C@H](c4ccc(O)cc4)c4c(O)cc(O)cc4[C@@H]23)cc1` [compound 7, pallidol] it is 21 to 45%.

By inhibition is commonly meant the change of the read-out against control, counted positive when it falls.
